# Reference: a melting point compilation (Tetko et al.; mined from patent text by program, amines drawn as free bases though some values may be those of a salt)
row,Compound,melting point [°C]
1,CC1(C)CC(=C(c2ccc(O)cc2)c2ccc(C#CCCC(=O)O)cc2)CC(C)(C)C1,233 to 234
2,CC1(C)CC(C)(C)CC(O)(C#Cc2ccccn2)C1,126 to 127
3,O=C1c2ccccc2C(=O)N1CCCOc1cccc(CN2CCOCC2)c1,90 to 93
4,C=CCN1CCC(Nc2ccc(Cl)cc2)CC1,90
5,c1ccc(OCCSCc2nnc(-c3ccc(OCCCN4CCC4)cc3)o2)cc1,60
6,Cc1oc(-c2ccc3ccccc3c2)nc1COc1ccc(CCCCCOS(C)(=O)=O)cc1,132 to 133
7,CCOC(=O)Cc1nsc2ccc(-n3c(=O)cc(C(F)(F)F)n(C)c3=O)cc12,150 to 152
8,CN1C2=NCCN2C(=O)c2cccnc21,168 to 171
9,CCOC(=O)C1CN(C(C)=O)CCC1=O (stereo not given),53 to 55
10,O=C1NCCN1c1ccc(S(=O)(=O)Nc2cccc(Cl)c2)cc1,180 to 182
11,CC(C)(C)[Si](C)(C)OC(CCCO)COc1ccc2c(=O)cc(-c3ccccc3)oc2c1 (stereo not given),124 to 125
12,CC(C)Cc1cc2c(s1)C(C(=O)O)CC2=O (stereo not given),80
13,CCOC(=O)C1C=Nc2c(ccc(F)c2F)C1=O (stereo not given),270
14,Cc1cc(C(=O)N2CCC3(CC2)CSC2=C(O3)c3ccccc3C(=O)C2=O)nn1C,184 to 185
15,O=C1c2ccccc2C(=O)c2c1cc(CO)c1c2CCC1,191 to 192
16,CC(=O)NCc1ccc(CN2CCN(c3ncccn3)CC2)cc1,120 to 121
17,NC=C1C(=O)N(c2cccc(Cl)c2)c2ccccc21,141 to 143
18,CC1CCN(c2cc3nc(C(C)(C)C)sc3cc2N)CC1,146 to 148
19,CCc1ccc(Cc2c(O)nn(C(C)C)c2C)cc1,164 to 169
20,CCc1ncnc(NC(CC)c2ccc(Oc3c(F)c(F)c(C(F)(F)F)c(F)c3F)cc2)c1Cl (stereo not given),58 to 61
21,N#Cc1cnc(Nc2ccc(OCCn3cnnc3)cc2)nc1-c1cccs1,228
22,COc1cc2c(cc1OC)CN(c1nc(N)nc(Cl)n1)CC2,196 to 197
23,Cc1ccsc1C1CC(=O)c2c(C)ccnc2C1 (stereo not given),104 to 105
24,O=C1NC=N[C@H]2CCCC[C@@H]12 (relative stereo),133 to 134
25,Sc1c(Br)cc(Br)c(Br)c1S,125 to 127

row,Compound,melting point [°C]
1,CN(C(=O)c1ccccc1N)c1ccccc1,127
2,COC(CNC1=Nc2ccc(Cl)cc2C(c2ccccc2)N1C)OC (stereo not given),104 to 105
3,COc1ccc(-c2cc(-c3ccc(-c4c(Cc5ccccc5)sc5ccccc45)cc3)ccc2OC(Cc2ccccc2)C(=O)O)cc1 (stereo not given),82 to 84
4,CC(C)(C)C(O)c1ccc(C(=O)c2ccccc2)cc1 (stereo not given),103 to 105
5,COCOc1c(Br)cccc1-c1ccc2c(c1)C(C)(C)CCC2(C)C,74
6,Cc1cccc(SCn2cc(F)cnc2=O)c1,124
7,O=C(CC1CCC2(CC1)OCCO2)N1CCN(c2ccccn2)CC1,113 to 116
8,CC(C)C(O)c1cc2ccncc2[nH]1 (stereo not given),140 to 144
9,Cc1c2c(c(-c3ccccc3)n1C)N(C)C(=O)CN=C2c1ccccc1,232 to 234
10,COc1ccc(Cc2ccc(NC3=NCCN3)cc2OC)cc1,127 to 128
11,COc1ccc2[nH]cc(C3=CCN(C[C@H](O)COc4cccc5[nH]ccc45)CC3)c2c1,105 to 110
12,CS(=O)(=O)Nc1ccc(OC[C@@H]2CO2)cc1,106 to 108
13,Cc1nnc(N2N=C(c3ccc([N+](=O)[O-])cc3)c3cc4c(cc3C[C@H]2C)OCO4)o1,202 to 204
14,Nc1ncnc2c1ncn2[C@H]1C=C[C@@H](O)CC1 (racemic),181 to 183
15,CCC(C)n1ncn(-c2ccc(N3CCN(c4ccc(OCC(O)(Cn5cncn5)c5ccc(Cl)cc5Cl)cc4)CC3)cn2)c1=O (stereo not given),144 to 145
16,Cc1cn2c(n1)CN=C(c1ccccc1Cl)c1cc(Cl)ccc1-2,170
17,Cc1ccc(NC(=O)N(C)Cc2cccc3c2CN(C2CCC(=O)NC2=O)C3=O)cc1C (stereo not given),228 to 230
18,Cc1cc2c3c(cccc3c1Br)C(=O)N(O)C2=O,255 to 257
19,CCOC(=O)c1nc2sc3c(c2c(=O)[nH]1)CCCC3,207 to 209
20,Cc1nc(NCc2ccc(C)o2)c2nc(-c3ccccc3)cc-2[nH]1,125 to 128
21,N#CC1c2ccccc2C(Nc2ccc(Cl)cc2)=NN1C(=O)c1ccccc1 (stereo not given),201 to 202
22,Cc1c(C(=O)O)cc(Cl)c2c1C(=O)CCS2,190 to 192
23,CC(CC(=O)O)C(=O)NC1(C(=O)O)CCCC1 (stereo not given),169 to 170
24,COc1cc(C(=O)c2c(N)sc3c2CCN(C(=O)c2ccc(Cl)cc2)C3)ccc1OC(C)C,118 to 119
25,O=C1CCCc2nc3ccccc3c(NCc3ccccc3C(F)(F)F)c21,167
